Data as given in patent US6166070A, “Kodaistatins A, B, C and D, a process for their production and their use” (Aventis Pharma Deutschland GmbH, priority 1997, dated 2000).
Values after ≈ are worked out from the molar mass of the structure shown. Like-named read-outs stand apart in the source and are kept apart here.

Tests used:
solubility = type: physicochemical; conditions: solvents in which soluble
[1] = target: T1, rat liver microsomal glucose-6-phosphate translocase (Rattus norvegicus, UniProt F7EWB7); test: inhibition of rat liver microsomal glucose-6-phosphate translocase (colorimetric assay, untreated and Triton X-100 disrupted microsomes); type: biochemical
T1 construct: rat liver microsomal glucose-6-phosphate translocase; from tissue; host or cells: rat liver microsomes (untreated and Triton X-100 disrupted)
T1 sequence (F7EWB7 1-429): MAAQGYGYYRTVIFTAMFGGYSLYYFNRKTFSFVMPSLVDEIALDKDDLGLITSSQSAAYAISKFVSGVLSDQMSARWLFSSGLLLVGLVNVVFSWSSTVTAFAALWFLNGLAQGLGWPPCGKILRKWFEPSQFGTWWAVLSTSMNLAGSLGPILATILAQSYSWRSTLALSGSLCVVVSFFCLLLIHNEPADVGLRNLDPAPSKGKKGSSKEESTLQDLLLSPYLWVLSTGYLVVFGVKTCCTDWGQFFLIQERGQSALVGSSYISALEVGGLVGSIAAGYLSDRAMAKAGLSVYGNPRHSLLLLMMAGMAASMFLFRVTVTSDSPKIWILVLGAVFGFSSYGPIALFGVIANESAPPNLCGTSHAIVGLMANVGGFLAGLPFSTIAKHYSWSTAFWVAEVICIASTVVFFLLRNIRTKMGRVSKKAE
Method: (§1) The fermentation is preferably carried out for 40 to 90 hours when an optimal yield of the compounds of the present invention are obtained. It is particularly preferred to carry out the fermentation for 45-70 hours under submerged conditions for example in shake flasks as well as in laboratory fermenters. If desired, antifoam agents like Desmophen® (Polypropylene oxide, Bayer A G, Leverkusen, Germany) may be used in the fermentation process. The progress of fermentation and formation of Kodaistatins A, B, C and D can be detected by measuring the […] in untreated and Triton X-100® disrupted rat liver microsomes in microliter plates at room temperature using a colorimetric assay as described in Methods in Enzymology, 174,58-67 (1989) with some modification and by HPLC In the resulting culture broth, kodaistatin B, C and D are present as minor compounds, and kodaistatins A as a major compound. Thus, the active crude material can be recovered by extraction of mycelium with water miscible solvents such as methanol, ethanol and acetone, and extraction of the culture filtrate with a water immiscible solvent such as ethyl acetate, dichioromethane, chloroform or butanol at pH 5-8 or by hydrophobic interaction chromatography using polymeric resins such as "Diaion HP-20®" (Mitsubishi Chemical Industries Limited, Japan), "Amberlite XAD®" (Rohm and Haas Industries U.S.A.) activated charcoal or ion exchange chromatography at pH 5-8. The preferred method is adsorption over "Diaion HP-20®" followed by desorption of the compound using eluants such as water, methanol, acetone or acetonitrile or combinations thereof. Concentration and lyophilization of the active eluates gives the crude compound.
Kodaistatins A, B, C and D inhibit potently the activity of rat liver microsomal glucose-6-phosphate translocase.

[2] = tested on: fructose-induced gluconeogenesis; test: glucose output of isolated rat hepatocytes, fructose-induced gluconeogenesis; type: cell-based; conditions: Hepatocyte, read-out: IC50, inhibition of fructose-induced gluconeogenesis
Description: (§2) Kodaistatin A was further evaluated in isolated rat hepatocytes for its effect on glucose output.

[3] = tested on: glucagon-induced glycogenolysis; test: glucose output of isolated rat hepatocytes, glucagon-induced glycogenolysis; type: cell-based; conditions: Hepatocyte, read-out: IC50, inhibition of glucagon-induced glycogenolysis
Description: as §2

phosphatase = target: T2, phosphatase (Rattus norvegicus, UniProt P43428); test: inhibition of phosphatase activity in detergent-disrupted microsomes; type: biochemical; conditions: for IC50: detergent-disrupted microsomes
T2 construct: from tissue; host or cells: rat liver microsomes, detergent (Triton X-100) disrupted
T2 sequence (P43428 1-357): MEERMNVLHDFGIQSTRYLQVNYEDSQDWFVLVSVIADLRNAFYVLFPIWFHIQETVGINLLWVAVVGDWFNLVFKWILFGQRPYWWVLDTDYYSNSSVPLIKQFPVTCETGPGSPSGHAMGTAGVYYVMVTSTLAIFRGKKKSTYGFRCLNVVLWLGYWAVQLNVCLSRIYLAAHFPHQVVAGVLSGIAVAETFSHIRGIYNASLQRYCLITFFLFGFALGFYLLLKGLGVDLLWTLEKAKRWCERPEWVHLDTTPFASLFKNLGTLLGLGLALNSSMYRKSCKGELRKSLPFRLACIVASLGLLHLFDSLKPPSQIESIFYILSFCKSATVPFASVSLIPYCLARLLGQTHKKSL
Method: as §1

[4] = tested on: phosphate/pyrophosphate translocase; test: effect on activity of phosphate/pyrophosphate translocase; type: biochemical, rat
[5] = rat liver microsomes, read-out: approximate IC50, glucose-6-phosphate translocase (converted)

Solubility (solubility)	IC50 [1, 5] [µM]	mode of inhibition of glucose-6-phosphate translocase [1]	IC50 ([1]; Example V, isolation and purification, read-out: IC50, glucose-6-phosphate translocase, material at stages of purification (converted)) [µM]	IC50 ([1]; rat liver microsomes, molar value in parentheses, read-out: approximate IC50, glucose-6-phosphate translocase (converted)) [µM]	IC50 (phosphatase) [µM]	IC50 (phosphatase; molar value in parentheses) [µM]	effect on activity of phosphate/pyrophosphate translocase [4]	SMILES	IC50 [2] [µg/mL]	IC50 [3] [µg/mL]	specificity for translocase over phosphatase (phosphatase; translocase vs phosphatase)
MeOH and DMSO	~0.476							CCC(C)C=C(C)C=CC(=O)CC1=C(c2cc(O)c(O)cc2C2=C(O)C(=Cc3ccc(O)cc3)OC2=O)C(O)(C(C)=O)C(O)C1=O (single isomer, unassigned) [Kodaistatin B]			
MeOH, CH3 CN and DMSO	~0.317	reversible and competitive inhibitor	0.317	~0.3	~317	~300	did not affect the activity	CCC(C)/C=C(C)/C=C/C(=O)CC1=C(c2cc(O)c(O)cc2C2=C(O)/C(=C/c3ccc(O)cc3)OC2=O)C(O)(C(C)=O)C(O)C1=O (centres unmarked) [Kodaistatin A]	~25 (≈ 39.6 µM)	~50 (≈ 79.3 µM)	high degree of specificity for translocase
MeOH and DMSO	~0.139							CCC(C)C=C(C)C=CC(=O)CC1=C(c2cc(O)c(O)cc2C2=C(O)C(=Cc3ccc(O)c(O)c3)OC2=O)C(O)(C(C)=O)C(O)C1=O (centres unmarked) [Kodaistatin C]			
MeOH and DMSO	~0.773							CCC(C)C=C(C)C=CC(=O)CC1=C(c2cc(O)c(O)cc2C2=C(O)C(=Cc3ccc(O)c(O)c3)OC2=O)C(O)(C(C)=O)C(O)C1=O (centres unmarked) [Kodaistatin D]			
